The text below walks through data of patent US6730685B1, “Formulation of substituted benzimidazoles” (AstraZeneca AB, priority 1999, dated 2004).

Usually solubility stands for the concentration that dissolves in the medium under given conditions.

A short description of this series: Solubility of omeprazole and omeprazole sodium in water, dichloromethane and polyethylene glycol 400. In kind it is physicochemical. How it is done: The solubility of omeprazole (the non-ionised species) has been determined to approximately 0.1 g/l in water and approximately 100 g/l in dichloromethane at room temperature (22° C.). […] Omeprazole sodium is ionised and is therefore much more soluble in water compared with omeprazole and the opposite is applicable in the less polar solvent dichloromethane. The solubility of omeprazole (the non-ionised species) has been determined to approximately 20 g/l in polyethylene glycol 400. This means that the solubility is much better in polyethylene glycol, a less polar solvent, than in water. […] This means that the solubility in polyethylene glycol is much higher for omeprazole sodium than for omeprazole. The high solubility of omeprazole sodium in polyethylene glycol is very favourable regarding the formulation aspects of a parenteral pharmaceutical product.

Values after ≈ are worked out from the molar mass of the structure shown.

For the compound `COc1ccc2[nH]c([S+]([O-])Cc3ncc(C)c(OC)c3C)nc2c1` (stereo not drawn) [omeprazole], the solubility was around 100 mg/mL (≈ 289 mM) (22 °C, organic solvent or mixture); around 0.1 mg/mL (≈ 0.289 mM) (22 °C, water); around 20 mg/mL (≈ 57.9 mM) (organic solvent or mixture).

For the compound `COc1ccc2[n-]c([S+]([O-])Cc3ncc(C)c(OC)c3C)nc2c1.[Na+]` (stereo not drawn) [Omeprazole sodium], where the note is “result in words”, the Solubility in dichloromethane result is reported as “only slightly soluble”, the “Solubility in polyethylene glycol 400” value is given as “freely soluble” and the Solubility in water entry is listed as “freely soluble”.
